How the values were obtained:
[1] = biological target: T1, BSA (Bos taurus, UniProt P02769); assay: Fluorescence quenching binding parameters between vitamin E and BSA; set-up: species or system bovine; details: 2.0 μM BSA, room temperature, mean ± S.E. (n = 3); for Stern–Volmer constant (Ksv) / Kd: excitation 280 nm, emission 340 nm; for Kd: read-out: apparent binding constant (Ka) (converted)
T1 construct: Bovine serum albumin (BSA; Fatty Acid/IgG/Protease-Free); purchased FUJIFILM Wako Pure Chemical Corporation, Ltd. (Osaka, Japan)
Protocol: The binding parameters of each Toc or T3 analog to BSA were measured with slight modifications to a previously described procedure[32],[34]. Each Toc or T3 analog was dissolved in DMSO at 10 mM, and added to a quartz cell containing 3.0 mL of 2.0 μM BSA stock solution to achieve a final concentration of 1.0–225.0 μM. […] Fluorescence spectra were recorded at room temperature using FP-6200 (JASCO, Tokyo, Japan) at an excitation wavelength of 280 nm and emission wavelengths from 300 to 500 nm. The intensity at 340 nm was used to calculate the Stern–Volmer constant (Ksv) by the following equation[39]: F0/F = 1 + Ksv[VE]. We also calculated the apparent binding constant (Ka) and the number of binding sites (n) by the following equation[40]: log((F0 − F)/F) = nlogKa − nlog(1/([VE] − [BSA](F0 − F)/F0)). Abbreviations in the above equations refer to follows: F0, initial fluorescence intensity; F, fluorescence intensity in the presence of each Toc or T3 analog; [VE], molar concentration of each Toc or T3 analog; [BSA], original BSA concentration. The same measurements were performed using a buffer solution without BSA, and the F values were calculated using the measured fluorescence intensity as a blank.

[2] = system: LNCaP cells; set-up: method as in PMID 21400505; details: 50 μM γ-Toc or 10 μM γ-T3, 6 hours; cited from earlier work
[3] = system: PC-3 cells; set-up: method as in PMID 21400505; details: 50 μM γ-Toc or 10 μM γ-T3, 6 hours; cited from earlier work
[4] = system: THP-1 monocytes; assay: Cellular uptake of vitamin E in THP-1 monocytes (37 °C, LC–MS/MS); assay type: cell-based, human; details: 20.0 μM analog, serum-depleted medium with 0–200.0 μM BSA, 2 h
Protocol: THP-1 monocytes (2.5 × 10^6 cells) were preincubated in 5.0 mL of 10% FBS/RPMI medium. The cells (2.5 × 10^6 cells) were also preincubated in 5.0 mL of FBS-free 10% PBS/RPMI medium in the absence or presence of 0.2, 2.0, 20.0, 32.4, and 200.0 μM BSA (each medium was prepared by dissolving the 2.0 mM BSA stock solution in 10% PBS/RPMI medium). After 24 h of these preincubations, 5.0 μL of each vitamin E stock solution was added to 10% FBS/RPMI medium or 10% PBS/RPMI medium at a final concentration of 20.0 μM and further incubated for 2 h. […] The incubated cells were collected by centrifugation and washed with PBS. The cells were resuspended in 0.6 mL water and homogenized on ice. A part of the lysate (0.5 mL) was used to analyze vitamin E (described below), and the remaining 0.1 mL was used to quantify protein by the BCA Protein Assay (Thermo Fisher Scientific).
Vitamin E was extracted from the cell lysates according to the procedure described in our previous study. Tocol (Tama Biochemical, Tokyo, Japan) was used as an internal standard. The extract was analyzed by liquid chromatography-tandem mass spectrometry (LC–MS/MS). The LC–MS/MS system consisted of an ExionLC system and a 4000QTRAP mass spectrometer (SCIEX, Tokyo, Japan). […] Vitamin E was detected in the multiple reaction monitoring (MRM) mode (Table 1) under atmospheric pressure chemical ionization. […]

[5] = system: THP-1 monocytes; assay: Cellular uptake in THP-1 monocytes with ATP synthesis inhibitors; assay type: cell-based, human; details: 10.0 μM vitamin E, 10.0 μM BSA, 1 mM DNP or 10 mM NaN3 + 5 mM 2DG, 1 h, 37 °C, vs control
Protocol: To further investigate cellular uptake mechanism, cell culture study was conducted using two ATP synthesis inhibitors as follows: (1) 1 mM 2,4-dinitrophenol or (2) a mixture of 10 mM sodium azide and 5 mM 2-deoxy-D-glucose[45]. THP-1 monocytes (2.5 × 10^6) preincubated in 10% FBS/RPMI medium were collected, suspended in 1.0 mL of PBS(+)[45] containing each inhibitor, and preincubated for 10 min at 37 °C under slow rotation in a tube rotator. […] Control samples were similarly prepared without the addition of inhibitors and incubated for 1 h. Vitamin E and protein levels were measured as described above.
Figure S1 The effect of two ATP synthesis inhibitors (1 mM 2,4-dinitrophenol (DNP) or a mixture of 10 mM sodium azide and 5 mM 2-deoxy-D-glucose (NaN3+2DG)) on the […]
Cells were incubated in PBS(+) […]
hour. Control samples were similarly incubated without the addition of inhibitors. […]
the main article. Values are expressed as mean ± SE of three independent experiments.
The statical significance of the results was analyzed using Dunnett's test, where p < 0.05 was considered statistically significant . […]
and samples treated with ATP synthesis inhibitor.
(1 picture or pasted object on this page, not shown here)

[6] = system: THP-1 monocytes; assay: Cellular uptake in THP-1 monocytes at low temperature (4 °C); assay type: cell-based, human; details: 20.0 μM, 2 h; for effect of BSA addition on cellular uptake at low temperature: serum-depleted medium with 0–200.0 μM BSA
Protocol: THP-1 monocytes preincubated in 10% FBS/RPMI medium were collected. The collected cells (2.5 × 10^6) were suspended in 1.0 mL of 10% PBS/RPMI medium containing 0, 0.2, 2.0, 20.0, 32.4, and 200.0 μM BSA on ice. This suspension was immediately mixed with 4.0 mL of 10% PBS/RPMI medium containing BSA and vitamin E. The final composition was 5.0 mL of 10% PBS/RPMI medium containing 0, 0.2, 2.0, 20.0, 32.4, or 200.0 μM BSA, and 20.0 μM α-Toc or α-T3. Cells were incubated at 4 °C with slow rotation in a tube rotator. After 2 h incubation, the cell lysate was prepared as above, and vitamin E and protein levels were measured.
Vitamin E was extracted from the cell lysates according to the procedure described in our previous study. Tocol (Tama Biochemical, Tokyo, Japan) was used as an internal standard. The extract was analyzed by liquid chromatography-tandem mass spectrometry (LC–MS/MS). The LC–MS/MS system consisted of an ExionLC system and a 4000QTRAP mass spectrometer (SCIEX, Tokyo, Japan). An Inersil SIL-100A-5 column (4.6 mm × 250 mm; GL Science, Tokyo, Japan) was eluted with a mobile phase consisting of hexane/1,4-dioxane/2-propanol (100:4:0.5, v/v/v). The flow rate was 1.0 mL/min, and the column temperature was 40 °C. Vitamin E was detected in the multiple reaction monitoring (MRM) mode (Table 1) under atmospheric pressure chemical ionization. The ion source parameters were as follows: curtain gas, 45.0 psi; collision gas, 8.0 psi; nebulizer current, − 3.0 μA; temperature, 350.0 °C; ion source gas 1, 60.0 psi; interface heater, ON.

[7] = system: Jurkat cells; set-up: method as in PMID 15753172; details: 1 μM α-Toc or α-T3, 24 hours; cited from earlier work

T1 sequence (P02769 25-607): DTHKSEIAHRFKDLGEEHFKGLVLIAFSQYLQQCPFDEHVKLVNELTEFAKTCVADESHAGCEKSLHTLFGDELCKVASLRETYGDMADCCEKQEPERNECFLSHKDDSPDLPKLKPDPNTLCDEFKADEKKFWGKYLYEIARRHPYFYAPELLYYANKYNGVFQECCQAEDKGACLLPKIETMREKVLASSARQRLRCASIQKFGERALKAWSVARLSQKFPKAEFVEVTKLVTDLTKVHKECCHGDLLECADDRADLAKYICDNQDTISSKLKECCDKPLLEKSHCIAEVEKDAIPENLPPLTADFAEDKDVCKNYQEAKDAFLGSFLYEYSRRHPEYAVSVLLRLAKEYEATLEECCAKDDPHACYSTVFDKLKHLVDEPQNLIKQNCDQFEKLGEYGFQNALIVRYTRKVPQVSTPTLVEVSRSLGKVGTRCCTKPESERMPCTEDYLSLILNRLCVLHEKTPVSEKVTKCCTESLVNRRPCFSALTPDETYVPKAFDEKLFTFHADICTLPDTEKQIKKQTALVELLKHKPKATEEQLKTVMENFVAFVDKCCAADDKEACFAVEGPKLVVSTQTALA

SMILES	Stern–Volmer constant (Ksv) [1]	Kd [1]	number of binding site (n) [1]	effect of ATP synthesis inhibitors on cellular uptake [5]	cellular concentration compared with α-Toc at low temperature ([6]; BSA-containing medium)	cellular uptake compared with γ-Toc [2]	cellular uptake compared with γ-Toc [3]	effect of BSA addition on cellular concentration [4]	effect of BSA addition on cellular uptake at low temperature [6]	cellular uptake relative to α-Toc [7]
CC(C)=CCC/C(C)=C/CC/C(C)=C/CC[C@]1(C)CCc2cc(O)c(C)c(C)c2O1 [γ-T3]	1.35 ± 0.01 × 10^4 M^−1	62.1 µM	0.74 ± 0.02	–	–	higher cellular uptake than γ-Toc	higher cellular uptake than γ-Toc	–	–	–
CC(C)=CCC/C(C)=C/CC/C(C)=C/CC[C@]1(C)CCc2cc(O)cc(C)c2O1 [δ-T3]	1.51 ± 0.02 × 10^4 M^−1	55.2 µM	0.78 ± 0.01	No significance	–	–	–	increase the most	–	–
Cc1c(C)c2c(c(C)c1O)CC[C@@](C)(CCC[C@H](C)CCC[C@H](C)CCCC(C)C)O2 [α-Toc]	0.93 ± 0.06 × 10^4 M^−1	99 µM	0.69 ± 0.02	–	–	–	–	particularly pronounced	reduced upon the addition of BSA	–
CC(C)=CCC/C(C)=C/CC/C(C)=C/CC[C@]1(C)CCc2c(C)c(O)c(C)c(C)c2O1 [α-T3]	1.19 ± 0.07 × 10^4 M^−1	69.4 µM	0.70 ± 0.04	–	slightly higher than that of α-Toc	–	–	–	did not observe the BSA-induced increase	6.5 fold
Cc1cc(O)c(C)c2c1O[C@](C)(CCC[C@H](C)CCC[C@H](C)CCCC(C)C)CC2 [β-Toc]	1.00 ± 0.02 × 10^4 M^−1	95.2 µM	0.69 ± 0.01	–	–	–	–	–	–	–

Now from value to molecule, other results behind:

Stern–Volmer constant (Ksv) [1]	Kd [1]	number of binding site (n) [1]	effect of ATP synthesis inhibitors on cellular uptake [5]	cellular concentration compared with α-Toc at low temperature ([6]; BSA-containing medium)	SMILES	cellular uptake compared with γ-Toc [2]	cellular uptake compared with γ-Toc [3]	effect of BSA addition on cellular concentration [4]	effect of BSA addition on cellular uptake at low temperature [6]	cellular uptake relative to α-Toc [7]
0.82 ± 0.01 × 10^4 M^−1	115 µM	0.71 ± 0.02	–	–	Cc1c(O)cc2c(c1C)O[C@](C)(CCC[C@H](C)CCC[C@H](C)CCCC(C)C)CC2 [γ-Toc]	–	–	–	–	–
0.89 ± 0.04 × 10^4 M^−1	105 µM	0.71 ± 0.01	No significance	–	Cc1cc(O)cc2c1O[C@](C)(CCC[C@H](C)CCC[C@H](C)CCCC(C)C)CC2 [δ-Toc]	–	–	–	–	–
1.39 ± 0.13 × 10^4 M^−1	59.5 µM	0.76 ± 0.00	–	–	CC(C)=CCC/C(C)=C/CC/C(C)=C/CC[C@]1(C)CCc2c(C)c(O)cc(C)c2O1 [β-T3]	–	–	–	–	–

Reference: paper PMC10164177, “The difference in the cellular uptake of tocopherol and tocotrienol is influenced by their affinities to albumin” (Scientific Reports, 2023)
